Consider 13 compounds from patent US4820718A, “N-alkyl-(2- or 5-substituted-2-methoxycarbonyl aminoalkyl furanyl)-substituted cyclimmonium salts and use thereof in PAF inhibition” (Sandoz Pharm. Corp., priority 1987, dated 1989).

Series [1] concerns PAF-mediated extravasation. As to the kind of experiment: PAF-induced Extravasation test (Test C), hemoconcentration. The class given is in vivo, guinea pig. The note with it: Cavia porcellus, iv, i.a., guinea pigs, PAF 100 ng/kg i.v., increase in hematocrit.
Procedure: (§1) Male guinea pigs, weighing between 300 and 400 gm, are anesthetized, after which time a femoral catheter is inserted. The test compound is administered intraarterially at one to five minutes prior to the introduction of PAF. The PAF (C18 -Sandoz, Hanover) is dissolved in Tris-Tyrode's bovine serum albumin buffer and administered intravenously (jugular) at 100 ng/kg.
(§2) To determine the hematocrit value, which is employed to index hemoconcentration and is defined as the percent of packed red blood cells in a sample of blood which is centrifuged to separate plasma from the cellular components, blood samples are collected in 50 μl heparinized hematocrit tubes. These samples are taken just prior to the injection of PAF, one minute subsequent to the injection of PAF and every two minutes thereafter until 15 minutes has lapsed subsequent to the injection of PAF. The tubes are then centrifuged and the percent of packed red blood cells (hematocrit) is measured (PAF induces a maximal increase in hematocrit at 5 to 7 minutes subsequent to the injection of PAF). The percent increase in hematocrit over the value prior to the injection of PAF is calculated. The hematocrit values obtained with the test compound are compared to the hemoconcentration values obtained with PAF alone and are expressed as percent inhibition of percent increase in hematocrit. From the values obtained, an ED50 is generated.
Series [2] relates to PAF-induced bronchoconstriction. The series is described as follows: Decrease in inhibition of bronchoconstriction over time (Test I). The class given is in vivo, guinea pig. The note with it: i.v., x times the ED50, time still inhibiting 50%.
Procedure: Male guinea pigs, weighing between 300 and 400 gm, are anesthetized, after which time trachea tube, carotid and jugular catheters are inserted. The test animal is then force ventilated employing a small animal Harvard respirator and the resistance to lung inflation (PIP) is measured utilizing a pressure transducer and recorder. The test compound is administered orally at 30 minutes prior to, intravenously (jugular) at 5 minutes prior to, or intraarterially at 1 to 5 minutes prior to the introduction of PAF. The PAF (C18 -Sandoz, Hanover) is dissolved in Tris-Tyrode's bovine serum albumin buffer and administered intravenously (jugular) at 100 ng/kg. Any blood pressure measurements taken are recorded from a transducer attached to the carotid catheter. […] (This early response is also the greatest response and is, therefore, termed mazimal PIP); and (2) the long term (at least 30 minutes) PIP response which slowly decreases to baseline. A reading at 15 minutes after the administration of PAF is termed the endpoint PIP.
Thus, a decrease in inhibition of bronchoconstriction over time (Test I) can be measured by a modification of Test B described above wherein an amount of the test compound which is x times the ED50 for the compound is intravenously administered to the test animals. By observing the time at which the test compound still inhibits 50% of the bronchoconstriction caused by the PAF challenge, the rate of loss of the test compound can be determined employing the following equation: [formula]
Series [3] addresses T1, Human Platelet PAF Receptor (Homo sapiens, UniProt P25105).
T1 construct: 500 μl of the above-described platelets; endogenous in cells; host or cells: washed human platelets from blood of healthy donors
As to the kind of experiment: Human Platelet PAF Receptor Assay (Test A), inhibition of specific binding of [3H]-PAF to platelets. The conditions noted are these: [3H]-PAF specific binding. As for the experimental part: Platelet rich plasma (PRP) is prepared by centrifugation (250×g) of the blood for 20 minutes at room temperature. […] The platelets are resuspended at […] in TT/BSA containing 1.4 mM CaCl2.2H2 O and 0.7 mM MgCl2.6H2 O. All of the tests are conducted in duplicate and each of the test compounds is evaluated at concentrations of 100, 50, 1 and 0.1 μM. For each determination, the following solutions are mixed: 500 μl of the above-described platelets; 10 μl of [^3 H]-PAF (40,000 counts per minute (cpm) to a final concentration of […]); and either 10 μl of the test compound at 50× the desired final concentration, 10 μl of vehicle (total bound), or 10 μl of 1.85×10^-5 M cold PAF (non-specifically bound), […] The supernatants are then aspirated into the same scintillation vials as before and 10 ml, of Scintiverse II (a liquid scintillation cocktail) is added to and mixed therewith. The pellets are resuspended in 500 μl of Scintiverse II and mixed well. […] The amount of specific binding is calculated as the difference in cpm between the total bound [^3 H]-PAF and non-specifically bound [^3 H]-PAF. The percent inhibition of specific binding is determined by dividing the cpm specifically bound in the presence of the test compound by the cpm specifically bound in total, multiplying by 100 and then subtracting from 100. An IC50 (50% inhibitory concentration) value is generated by evaluating the test compound over the full concentration range.

Series [4] deals with PAF-induced hemoconcentration. As to the kind of experiment: Decrease in inhibition of hemoconcentration over time (Test J). The class given is in vivo, guinea pig. The note with it: i.v., x times the ED50, time still inhibiting 50%.
Procedure: as §1, §2
Similarly, a decrease in inhibition of hemoconcentration over time (Test J) can be measured by a modification of Test C described above wherein an amount of the test compound which is x times the ED50 for the compound is intravenously administered to the test animals. By observing the time at which the test compound still inhibits 50% of the hemoconcentration caused by the PAF challenge, the rate of loss of the test compound can be determined employing the above equation.
The subject of series [5] is PAF-induced human platelet aggregation. The series is described as follows: Platelet Aggregation Inhibition Assay (PAIA test), PAF-induced human platelet aggregation in vitro. The class given is cell-based. The note with it: human platelet rich plasma. As for the experimental part:
All of the compounds of formula I are useful as platelet activating factor inhibitors as indicated by their ability to inhibit platelet activating factor (PAF)-induced human platelet aggregation in vitro according to the Platelet Aggregation Inhibition Assay test (PAIA test) as follows: Human subjects are kept aspirin free for one week and fasted overnight. Platelet rich plasma (PRP) is prepared by centrifugation (200×g.) of freshly drawn blood anti-coagulated with 0.38% sodium citrate (final concentration). Platelet count is adjusted to 250,000 per μl using platelet poor plasma (PPP) obtained by a second centrifugation (700×g.) of the blood sample. An aliquot (0.38 ml) of the PRP is dispensed into cuvettes and maintained at room temperature (22° C.) until used (but for not more than two hours). […] All aggregations are allowed to proceed for 6 minutes for the addition of the inducing agent. The aggregation response is quantitated by determining the area under the curve (AUC). The AUC calculated for the inducing agent alone is considered to be one hundred percent. The potential percent inhibition of the aggregation response is determined by dividing the AUC generated in the presence of the compound by the AUC of the inducing agent alone, multiplying by 100 and then subtracting from 100.

Series [6] deals with PAF-mediated broncho-constriction. As to the kind of experiment: PAF-induced Pulmonary Inflation Pressure (PIP) Increase test (Test B). The class given is in vivo, guinea pig. The note with it: Cavia porcellus, iv, i.a., guinea pigs, PAF 100 ng/kg i.v., maximal PIP.
Procedure: Male guinea pigs, weighing between 300 and 400 gm, are anesthetized, after which time trachea tube, carotid and jugular catheters are inserted. The test animal is then force ventilated employing a small animal Harvard respirator and the resistance to lung inflation (PIP) is measured utilizing a pressure transducer and recorder. The test compound is administered orally at 30 minutes prior to, intravenously (jugular) at 5 minutes prior to, or intraarterially at 1 to 5 minutes prior to the introduction of PAF. The PAF (C18 -Sandoz, Hanover) is dissolved in Tris-Tyrode's bovine serum albumin buffer and administered intravenously (jugular) at 100 ng/kg. Any blood pressure measurements taken are recorded from a transducer attached to the carotid catheter. Two responses are noted in the PIP recordings after the PAF is administered: (1) an immediate response which, in PAF-only treated test animals, averages out to between 70% and 80% more than the baseline PIP values. (This early response is also the greatest response and is, therefore, termed mazimal PIP); and (2) the long term (at least 30 minutes) PIP response which slowly decreases to baseline. A reading at 15 minutes after the administration of PAF is termed the endpoint PIP.
Another series has as its system PAF-induced hypotension. The series is described as follows: PAF-induced hypotension test (Test D). Type of series: in vivo, Wistar rat. The conditions noted are these: for ED50: Rattus norvegicus, iv, Test D, Wistar rats, PAF-induced blood pressure decrease; for decrease in blood pressure: within 10 sec.

As a reminder, the ED50 is the dose that gives a 50% effect, or the effect in half of the subjects. Low values mean an effect at a small dose, high ones a need for a large dose. Broadly, the IC50 is the concentration at which inhibition is half-maximal. High values mean a need for much substance, low ones inhibition by little substance.

T1 sequence (P25105 whole entry): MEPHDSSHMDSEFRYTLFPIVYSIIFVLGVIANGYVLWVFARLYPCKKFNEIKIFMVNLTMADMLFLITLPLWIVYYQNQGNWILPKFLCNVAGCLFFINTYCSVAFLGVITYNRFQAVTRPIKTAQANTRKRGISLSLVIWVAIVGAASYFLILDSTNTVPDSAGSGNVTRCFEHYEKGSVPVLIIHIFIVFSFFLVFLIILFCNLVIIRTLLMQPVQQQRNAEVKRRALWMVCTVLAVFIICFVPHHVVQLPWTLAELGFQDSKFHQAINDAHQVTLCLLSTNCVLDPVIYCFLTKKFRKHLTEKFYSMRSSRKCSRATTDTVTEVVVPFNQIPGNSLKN
Procedure for PAF-induced hypotension: Male Wistar rats, weighing approximately 300 gm, are anesthetized and their carotid arteries cannulated to enable their diastolic and systolic arterial blood pressure measurements to be recorded. PAF is then administered intravenously at either 100 or 500 ng/kg, and the blood pressure drop (within 10 sec.) and recovery time required to reach the pre-injection blood pressure level are measured. […] In order to measure the effectiveness of a compound for both the inhibition of blood pressure decreases and shortening of the recovery time, the test compound is administered intravenously over a range of between 5 and 7 dosage levels (1 or 2 test animals per dose) and between 1 and 5 minutes prior to the introduction of PAF to generate an ED50.

In the case of `CCCCCCCCCCCCCCCCCCNC(=O)OC[C@@]1(C)CC[C@@](C)(COC(=O)N(Cc2cccc[n+]2CC)C(C)=O)O1` (relative stereo) [Example 9, Cis-2-[acetyl[[tetrahydro-2,5-dimethyl-5-[[[[(octadecyl)amino]carbonyl]oxy]methyl]furan-2-yl]methoxycarbonyl]aminomethyl]-1-ethylpyridinium chloride], the median effective dose (ED50) in series [1] came to 15 µg/kg; in series [6] it was 20 µg/kg. Moreover, the figures for the Rate of loss in series [2] and in series [4] were 0.88 µg/kg/min and 0.92 µg/kg/min, respectively. The IC50 in series [3] was 60 nM; in series [5], 350 nM.

In the case of `CCCCCCCCCCCCCCCCCCNC(=O)OCC1(COC(=O)N(Cc2cccc[n+]2CC)C(C)=O)CCCO1` (stereo not shown) [Example 1, 2-[Acetyl[[tetrahydro-2-[[[[(octadecyl)-amino]carbonyl]oxy]methyl]furan-2-yl]-methoxycarbonyl]aminomethyl]-1-ethylpyridinium chloride], the ED50 in series [1] turned out to be 2.8 µg/kg; with PAF-induced hypotension, 3 µg/kg; in series [6], 2.5 µg/kg. Further, the values for the Rate of loss in series [2] and in series [4] were 0.3 µg/kg/min and 0.35 µg/kg/min, respectively. Besides, the results for the 50% inhibitory concentration (IC50) in series [3] and in series [5] were 10 nM and 40 nM, respectively.

`CCCCCCCCCCCCCCCCCCNC(=O)OCC1(COC(=O)N(CCCCCc2cccc[n+]2CC)C(C)=O)CCCO1.[Cl-]` (stereo not shown) [Example 4, 2-[5-[Acetyl[[tetrahydro-2-[[[[(octadecyl)-amino]carbonyl]oxy]methyl]furan-2-yl]methoxycarbonyl]amino]pentyl]-1-ethylpyridinium chloride]: the 50% effective dose (ED50) in series [1] amounted to 17 µg/kg; in series [6], 15 µg/kg. Moreover, the Rate of loss in series [2] was 0.35 µg/kg/min; in series [4], 1.10 µg/kg/min. The IC50 in series [3] is 8 nM; in series [5], 130 nM.

With `CCCCCCCCCCCCCCCCCCNC(=O)OCC1(COC(=O)NCCCCCc2cccc[n+]2CC)CCCO1.[Cl-]` (stereo not shown) [Example 3, 2-[5-[[[Tetrahydro-2-[[[[(octadecyl)-amino]carbonyl]oxy]methyl]furan-2-yl]methoxycarbonyl]amino]pentyl]-1-ethylpyridinium chloride], the median effective dose (ED50) in series [1] stood at 8.5 µg/kg; in the series with PAF-induced hypotension, 27 µg/kg; in series [6], 5 µg/kg. The results for the Rate of loss in series [2] and in series [4] were 0.66 µg/kg/min and 0.65 µg/kg/min, respectively. The IC50 was found to be 20 nM in series [3] and 300 nM in series [5].

Regarding `CCCCCCCCCCCCCCCCCCNC(=O)OC[C@@]1(C)CC[C@@](C)(COC(=O)N(C)Cc2cccc[n+]2C)O1` (relative stereo) [Example 12, Cis-2-[methyl[[tetrahydro-2,5-dimethyl-5-[[[[(octadecyl)amino]carbonyl]oxy]methyl]furan-2-yl]methoxycarbonyl]aminomethyl]-1-methylpyridinium chloride], the figures for the 50% inhibitory concentration (IC50) in series [3] and in series [5] were 2200 nM and 2000 nM, respectively.

In the case of `CCCCCCCCCCCCCCCCCCNC(=O)OCC1(COC(=O)NCc2cccc[n+]2CC)CCCO1` (stereo not shown) [Example 2, 2-[[[Tetrahydro-2-[[[[(octadecyl)amino]carbonyl]oxy]methyl]furan-2-yl]methoxycarbonyl]aminomethyl]-1-ethylpyridinium chloride], the IC50 is 800 nM in series [3] and 16000 nM in series [5].

In the case of `CCCCCCCCCCCCCCCCCCNC(=O)OC[C@@]1(C)CC[C@@](C)(COC(=O)NCc2cccc[n+]2CC)O1` (relative stereo) [Example 10, Cis-2-[[[tetrahydro-5-[[[[(octadecyl)amino]carbonyl]oxy]methyl]-2,5-dimethyl-furan-2-yl]methoxycarbonyl]aminomethyl]-1-ethylpyridinium chloride], the median effective dose (ED50) in series [1] worked out at 60 µg/kg; in series [6], 150 µg/kg. The Rate of loss in series [2] is 30.0 µg/kg/min; in series [4], 10.21 µg/kg/min. Also, the half-inhibitory concentration (IC50) in series [3] was 560 nM; in series [5] it was 550 nM.

On to `CCCCCCCCCCCCCCCCCCOCC1(COC(=O)N(Cc2cccc[n+]2CC)C(C)=O)CCCO1` (stereo not shown) [Example 8, 2-[Acetyl[[tetrahydro-2-[(octadecyloxy)methyl]furan-2-yl]methoxycarbonyl]aminomethyl]-1-ethylpyridinium chloride], for which the values for the IC50 in series [3] and in series [5] were 14 nM and 860 nM, respectively.

As to `CCCCCCCCCCCCCCCCCCNC(=O)OC[C@@]1(C)CC[C@@](C)(COC(=O)NCc2cc(C)cc(C)[n+]2C)O1` (relative stereo) [Example 11, Cis-2-[[[tetrahydro-2,5-dimethyl-5-[[[[(octadecyl)amino]carbonyl]oxy]methyl]furan-2-yl]methoxycarbonyl]aminomethyl]-1,4,6-trimethylpyridinium chloride], the IC50 is 450 nM in series [3] and 2200 nM in series [5].

Regarding “1-O-alkyl-2-acetyl-sn-glyceryl-3-phosphoryl-choline [PAF, reference compound]”, in the series on PAF-induced hypotension (PAF 100 ng/kg i.v.), the “decrease in blood pressure” value stood at 30%. Also, in the series on PAF-induced hypotension (PAF 500 ng/kg i.v.), the “recovery time to pre-injection blood pressure level” value was 10 min and the “decrease in blood pressure” value was 52%.

Regarding `CCCCCCCCCCCCCCCCCCNC(=O)OCC1(COC(=O)N(Cc2cccc[n+]2CC)C(=O)c2ccccc2)CCCO1` (stereo not shown) [Example 7, 2-[Benzoyl[[tetrahydro-2-[[[[(octadecyl)amino]carbonyl]oxy]methyl]furan-2-yl]-methoxycarbonyl]aminomethyl]-1-ethylpyridinium chloride], the 50% inhibitory concentration (IC50) turned out to be 16 nM in series [3] and 840 nM in series [5].

With `CCCCCCCCCCCCCCCCCCNC(=O)OCC1(COC(=O)N(Cc2cccc[n+]2CC)C(=O)C(C)(C)C)CCCO1` (stereo not shown) [Example 6, 2-[Trimethylacetyl[[tetrahydro-2-[[[[(octadecyl)amino]carbonyl]oxy]methyl]furan-2-yl]methoxycarbonyl]aminomethyl]-1-ethylpyridinium chloride], the IC50 in series [3] came to 85 nM; in series [5], 500 nM.

For `CCCCCCCCCCCCCCCCCCN(C(C)=O)C(=O)OCC1(COC(=O)N(Cc2cccc[n+]2CC)C(C)=O)CCCO1` (stereo not shown) [Example 5, 2-[Acetyl[[tetrahydro-2-[[[[[acetyl(octadecyl)amino]carbonyl]oxy]methyl]furan-2-yl]methoxycarbonyl]aminomethyl]-1-ethylpyridinium chloride], the figures for the ED50 (in series [1]; in the series on PAF-induced hypotension; in series [6]) were 4 µg/kg, 4.5 µg/kg and 4 µg/kg, respectively. For the same compound, the half-maximal inhibitory concentration (IC50) in series [3] was found to be 2 nM; in series [5], 48 nM.
